From patent US9296704B2, “Substituted pyrimidines as protein kinase inhibitors” (CELGENE AVILOMICS RESEARCH, INC., priority 2007, dated 2016) come the findings set out here.

Structures are written as SMILES. Bounds are passed on as bounds.

The target of one test is T1, JAK3 (Homo sapiens, UniProt P52333).
T1 sequence (P52333 1-1124): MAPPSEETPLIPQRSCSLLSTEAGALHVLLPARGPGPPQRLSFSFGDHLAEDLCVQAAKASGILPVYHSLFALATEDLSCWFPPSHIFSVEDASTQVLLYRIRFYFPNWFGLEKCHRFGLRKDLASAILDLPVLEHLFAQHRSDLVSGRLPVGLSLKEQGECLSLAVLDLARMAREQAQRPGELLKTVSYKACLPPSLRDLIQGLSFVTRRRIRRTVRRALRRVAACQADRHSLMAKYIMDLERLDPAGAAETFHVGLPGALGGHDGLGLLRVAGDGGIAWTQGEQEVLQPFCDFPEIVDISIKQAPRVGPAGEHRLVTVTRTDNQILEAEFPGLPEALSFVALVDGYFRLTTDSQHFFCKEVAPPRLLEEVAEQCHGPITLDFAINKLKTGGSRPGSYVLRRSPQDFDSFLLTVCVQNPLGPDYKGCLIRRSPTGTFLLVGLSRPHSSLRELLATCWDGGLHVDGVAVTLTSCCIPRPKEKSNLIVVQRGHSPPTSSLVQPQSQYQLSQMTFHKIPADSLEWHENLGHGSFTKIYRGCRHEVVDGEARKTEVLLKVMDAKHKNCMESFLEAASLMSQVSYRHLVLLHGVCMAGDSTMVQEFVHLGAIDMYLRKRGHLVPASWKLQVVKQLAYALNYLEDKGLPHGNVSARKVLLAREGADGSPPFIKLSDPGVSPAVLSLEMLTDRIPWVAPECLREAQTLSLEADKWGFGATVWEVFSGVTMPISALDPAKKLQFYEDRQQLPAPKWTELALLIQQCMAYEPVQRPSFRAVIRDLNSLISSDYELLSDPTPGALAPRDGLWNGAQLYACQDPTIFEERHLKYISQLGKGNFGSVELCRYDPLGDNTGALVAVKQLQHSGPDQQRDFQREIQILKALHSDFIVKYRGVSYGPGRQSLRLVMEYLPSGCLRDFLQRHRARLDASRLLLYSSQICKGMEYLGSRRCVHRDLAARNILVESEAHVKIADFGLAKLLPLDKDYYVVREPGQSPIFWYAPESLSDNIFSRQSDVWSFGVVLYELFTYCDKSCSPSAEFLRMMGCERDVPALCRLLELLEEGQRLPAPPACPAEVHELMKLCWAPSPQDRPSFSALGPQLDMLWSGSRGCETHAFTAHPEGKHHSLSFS
Briefly: Omnia assay for potency against JAK3. Type of test: biochemical. Conditions: read-out: JAK3 Inhibition. The essentials:
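Continuous-read Omnia kinase assay with 5 nM JAK3, 5 μM ATP (near apparent Km) and 5 μM Y12-Sox peptide in Tris pH 7.5/MgCl2 buffer; enzyme pre-incubated with compound 30 min at 27 °C. Fluorescence (ex360/em485) read over 60 min; initial velocities fitted against inhibitor concentration to give IC50.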

The target in a further test is T2, EGFR (WT) (Homo sapiens, UniProt P00533).
T2 construct: purchased Invitrogen PV3872
Briefly: Omnia continuous-read kinase assay, EGFR (WT). Type of test: biochemical. Conditions: read-out: EGFR inhibtion. An outline of the steps:
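Enzyme pre-incubated 30 min at 27 °C with compound, then ATP/Y12-Sox peptide added; fluorescence (ex360/em485) read continuously 60 min in 20 mM Tris pH 7.5, 5 mM MgCl2, 0.2 mM DTT. WT: 5 nM enzyme, […]; T790M/L858R: 3 nM enzyme, […]. IC50 from initial velocities, variable-slope fit.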

Test [1] deals with BTK signaling in Ramos cells. Briefly: BTK Ramos cellular assay (PLCγ2 phosphorylation). Type of test: cell-based. Conditions: Homo sapiens; Ramos cells, PLCγ2 phosphorylation; read-out: BTK Inhibition.
The subject of another test is BTK in Ramos cells. Briefly: Washout experiment with Ramos cells for BTK activity. Conditions: Ramos washout assay, 100 nM compound for 1 hour. In kind it is cell-based, human. The protocol: Ramos cells were serum starved for one hour in RPMI media+1% glutamine at 37° C. After starvation, Ramos cells were treated with 100 nM compound diluted in serum free RPMI media for 1 hour. After compound treatment, the media was removed and cells were washed with compound-free media. Subsequently, Ramos cells were washed every 2 hours and resuspended in fresh compound-free media. Cells were collected at specified timepoints, treated with 1 ug anti-human IgM (Southern Biotech cat #2022-01) for 10 minutes on ice to induce BCR signaling and then washed in PBS. Ramos cells were then lysed in Cell Extraction Buffer (Invitrogen FNN0011) supplemented with Roche complete protease inhibitor tablets (Roche 11697498001) and phosphatase inhibitors (Roche 04 906 837 001) and 18 ug total protein lysate was loaded in each lane. Inhibition of BTK kinase activity was assayed by measuring its substrate (PLCγ2) phosphorylation by western blot with phospho-specific antibodies from Cell Signaling Technologies cat#3871. FIG. 10 depicts the results of compound I-13 in the washout experiment at 0 hour, 4 hour, 6 hour, and 8 hour time points.

Another test addresses BTK (Homo sapiens, UniProt Q06187). Briefly: Omnia assay for potency against BTK. Conditions: read-out: BTK Inhibition. In kind it is biochemical. An outline of the steps: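 BTK (5 nM) was pre-incubated 30 min at 27° C with serially diluted compounds in Tris pH 7.5/MgCl2 buffer, then started with […] and Y5-Sox peptide 10 mM (ATP KMapp ~36 mM). Fluorescence (ex360/em485) was read continuously over 60 min. IC50 came from initial velocities using a variable-slope fit.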

The test system of test [2] is EGFR (ErbB1) in A431 human epidermoid carcinoma cells. Briefly: Washout experiment for EGFR activity in A431 cells. In kind it is cell-based. Conditions: for enzyme inhibition after washout: A431 cells, 1 μM for 1 hr, EGF stimulation. As to the method: A431 human epidermoid carcinoma cells were grown in 6-well plates to 90% confluence and then incubated in serum-free media for 18 hr. Duplicate sets of cells were treated with 1 μM designated compound for 1 hr. One set of cells was then stimulated with 100 ng/ml EGF for 5 min, and extracts were made as described. The other set of cells was washed free of the compound with warmed compound-free medium, incubated for 2 hr, washed again, incubated another 2 hr, washed again, and then incubated another 2 hr washed again and incubated for additional 2 hr and then stimulated with EGF.

Sequence of BTK (Q06187 whole entry): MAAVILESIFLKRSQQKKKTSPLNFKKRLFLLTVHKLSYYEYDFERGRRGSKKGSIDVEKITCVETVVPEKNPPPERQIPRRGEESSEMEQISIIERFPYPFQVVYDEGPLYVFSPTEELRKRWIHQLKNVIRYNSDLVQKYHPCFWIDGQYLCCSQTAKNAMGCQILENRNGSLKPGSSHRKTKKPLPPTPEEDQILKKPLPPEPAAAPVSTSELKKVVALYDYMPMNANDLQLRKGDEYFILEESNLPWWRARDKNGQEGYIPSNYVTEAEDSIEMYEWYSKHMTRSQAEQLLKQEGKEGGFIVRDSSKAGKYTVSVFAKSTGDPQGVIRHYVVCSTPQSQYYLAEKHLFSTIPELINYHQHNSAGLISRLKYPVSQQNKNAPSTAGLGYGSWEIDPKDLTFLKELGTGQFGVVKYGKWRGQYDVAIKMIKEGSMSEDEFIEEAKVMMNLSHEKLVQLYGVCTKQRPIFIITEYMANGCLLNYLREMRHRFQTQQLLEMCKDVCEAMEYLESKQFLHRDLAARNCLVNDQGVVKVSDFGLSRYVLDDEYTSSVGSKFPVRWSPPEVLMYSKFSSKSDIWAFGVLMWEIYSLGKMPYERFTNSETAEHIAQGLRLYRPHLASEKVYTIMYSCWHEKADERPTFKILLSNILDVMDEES
T2 sequence (P00533 25-1210): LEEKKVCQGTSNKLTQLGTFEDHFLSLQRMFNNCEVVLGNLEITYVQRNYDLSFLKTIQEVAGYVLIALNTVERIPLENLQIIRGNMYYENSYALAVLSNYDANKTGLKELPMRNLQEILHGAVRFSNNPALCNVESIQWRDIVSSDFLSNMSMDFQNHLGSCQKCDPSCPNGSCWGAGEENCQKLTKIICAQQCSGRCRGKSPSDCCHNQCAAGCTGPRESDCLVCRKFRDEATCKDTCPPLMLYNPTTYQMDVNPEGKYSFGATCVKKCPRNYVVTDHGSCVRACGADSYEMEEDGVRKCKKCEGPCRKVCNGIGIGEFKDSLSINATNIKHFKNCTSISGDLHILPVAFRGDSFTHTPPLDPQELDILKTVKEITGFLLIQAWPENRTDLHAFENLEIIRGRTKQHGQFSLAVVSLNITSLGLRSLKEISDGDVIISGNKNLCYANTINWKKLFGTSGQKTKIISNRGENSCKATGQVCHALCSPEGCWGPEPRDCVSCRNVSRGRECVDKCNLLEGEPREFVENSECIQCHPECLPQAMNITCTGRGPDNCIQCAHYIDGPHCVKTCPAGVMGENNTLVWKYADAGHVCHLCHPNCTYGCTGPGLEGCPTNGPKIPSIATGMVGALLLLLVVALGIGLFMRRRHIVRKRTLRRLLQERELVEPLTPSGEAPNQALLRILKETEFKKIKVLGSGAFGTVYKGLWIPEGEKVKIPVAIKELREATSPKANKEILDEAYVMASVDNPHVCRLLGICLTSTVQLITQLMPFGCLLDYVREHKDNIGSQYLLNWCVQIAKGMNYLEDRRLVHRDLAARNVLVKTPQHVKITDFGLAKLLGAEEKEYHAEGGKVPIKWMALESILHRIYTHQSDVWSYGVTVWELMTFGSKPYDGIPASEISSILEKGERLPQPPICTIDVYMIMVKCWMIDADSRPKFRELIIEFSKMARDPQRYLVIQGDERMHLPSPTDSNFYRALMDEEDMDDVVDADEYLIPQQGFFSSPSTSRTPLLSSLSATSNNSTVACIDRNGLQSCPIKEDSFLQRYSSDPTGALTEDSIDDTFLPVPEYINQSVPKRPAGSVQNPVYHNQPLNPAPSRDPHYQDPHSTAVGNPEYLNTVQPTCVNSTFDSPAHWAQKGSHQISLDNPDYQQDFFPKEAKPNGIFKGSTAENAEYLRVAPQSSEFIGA

`CN(C)C/C=C/C(=O)Nc1cccc(Nc2cc(Oc3ccc(Oc4ccccc4)cc3)ncn2)n1` [I-82]: the IC50 on JAK3 is 10 to 100 nM; on EGFR (WT), at most 10 nM; in test [1] it was at most 10 nM; on BTK it was at most 10 nM. For the same compound, the “BTK Inhibition Type” value in the test with BTK in Ramos cells is reported as “irreversible”.
Regarding `C=CC(=O)Nc1ccc(Nc2cc(Nc3cccc(Br)c3)ncn2)cc1` [I-93, N-(4-[6-(3-bromophenylamino)-pyrimidin-4-ylamino]phenyl)-2-propenamide], the IC50 on JAK3 was at least 10000 nM; at EGFR (WT), at most 10 nM; on BTK, 1000 to 10000 nM. The “enzyme inhibition after washout” value in test [2] is “washed away”. The “type of binding to ErbB1 (irreversible / reversible)” value in test [2] (washout experiment, FIG. 2) is listed as “reversibly binds to ErbB1”.
Turning to `CCC(=O)Nc1cccc(Nc2cc(Nc3cccc(Br)c3)ncn2)c1` [I^R-3, N-{3-[6-(3-bromophenylamino)-pyrimidin-4-ylamino]phenyl}-propionamide, reference compound], the “enzyme inhibition after washout” value in test [2] is reported as “washed away”.
